Reference: patent US9409908B2 (priority 2012, dated 2016)
Where a name gives a salt, the structure may show the parent alone.

What follows are compounds tested against purified human Factor XIa (Homo sapiens (Human), UniProt P03951) (assay: biochemical). Details: not given.
Format: biochemical

Chain of purified human Factor XIa (P03951 whole entry, looked up): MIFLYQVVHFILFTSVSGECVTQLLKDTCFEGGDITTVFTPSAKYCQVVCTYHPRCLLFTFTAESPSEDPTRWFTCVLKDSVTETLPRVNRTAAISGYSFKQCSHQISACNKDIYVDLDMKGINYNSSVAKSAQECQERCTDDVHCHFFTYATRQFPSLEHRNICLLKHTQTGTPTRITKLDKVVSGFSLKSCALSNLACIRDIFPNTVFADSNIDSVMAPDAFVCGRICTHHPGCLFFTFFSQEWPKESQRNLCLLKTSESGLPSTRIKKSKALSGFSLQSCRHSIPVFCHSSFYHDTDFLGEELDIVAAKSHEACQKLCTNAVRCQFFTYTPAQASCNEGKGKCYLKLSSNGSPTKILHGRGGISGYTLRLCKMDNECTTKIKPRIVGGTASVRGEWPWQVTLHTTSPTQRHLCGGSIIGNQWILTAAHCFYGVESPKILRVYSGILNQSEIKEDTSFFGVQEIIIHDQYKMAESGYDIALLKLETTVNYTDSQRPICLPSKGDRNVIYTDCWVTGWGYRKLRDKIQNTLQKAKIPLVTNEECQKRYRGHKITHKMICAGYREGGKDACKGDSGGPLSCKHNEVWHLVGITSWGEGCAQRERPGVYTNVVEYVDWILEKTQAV
Chain of purified human Factor XIa (P03951 whole entry partner, looked up): as the sequence (P03951 whole entry, looked up) above

Row | Structure (SMILES) | Ki
1 | COC(=O)Nc1ccc2c(c1)NC(=O)C(C)(O)CCC[C@H](N1CCC(c3c(F)ccc(Cl)c3F)=CC1=O)c1cc-2ccn1 (single isomer, unassigned) [Example 124, TFA salt] | 346 nM

Same assay, conditions: TFA salt; read-out: Factor XIa Ki

Row | Structure (SMILES) | Ki
2 | COC(=O)Nc1ccc2c(c1)NC(=O)[C@H](C)CCC[C@H](N1CCC(C3CCCC(C)C3)=CC1=O)c1cc-2ccn1 (single isomer, unassigned) [Example 153, TFA salt] | 20 nM
3 | COC(=O)Nc1ccc2c(c1)NC(=O)[C@H](C)CCC[C@H](N1CCC(C3CCCC(C)C3)=CC1=O)c1cc-2ccn1 (single isomer, unassigned) [Example 218, TFA salt] | 38.2 nM

Same assay, conditions: read-out: Factor XIa Ki

Row | Structure (SMILES) | Ki
4 | COC(=O)Nc1ccc2c(c1)NC(=O)[C@H](C)CCC[C@H](N1CCC(c3c(C#N)ccc(C)c3F)=CC1=O)c1cc-2ccn1 [Example 104, Methyl N-[(10R,14S)-14-[4-(6-cyano-2-fluoro-3-methylphenyl)-6-oxo-1,2,3,6-tetrahydropyridin-1-yl]-10-methyl-9-oxo-8,16-diazatricyclo[13.3.1.0^2,7]nonadeca-1(18),2,4,6,15(19),16-hexaen-5-yl]carbamate, TFA salt] | 0.09 nM
5 | C[C@@H]1CCC[C@H](N2CCC(c3c(F)ccc(Cl)c3F)=CC2=O)c2cc(ccn2)-c2ccc(NC3O[C@H](CO)[C@@H](O)[C@H](O)[C@@H]3N)cc2NC1=O (stereo partly drawn) [Example 127, (10R,14S)-5-{[(3S,4R,5S,6R)-3-amino-4,5-dihydroxy-6-(hydroxymethyl)oxan-2-yl]amino)-14-[4-(3-chloro-2,6-difluorophenyl)-6-oxo-1,2,3,6-tetrahydropyridin-1-yl]-10-methyl-8,16-diazatricyclo[13.3.1.0^2,7]nonadeca-1(19),2,4,6,15,17-hexaen-9-one] | 3.61 nM
6 | C[C@@H]1CCC[C@H](N2CCC(c3c(F)ccc(Cl)c3F)=CC2=O)c2cc(ccn2)-c2cc(-c3nn[nH]n3)ccc2NC1=O [Example 140, (10R,14S)-14-[4-(3-chloro-2,6-difluorophenyl)-6-oxo-1,2,3,6-tetrahydropyridin-1-yl]-10-methyl-4-(2H-1,2,3,4-tetrazol-5-yl)-8,16-diazatricyclo[13.3.1.0^2,7]nonadeca-1(19),2(7),3,5,15,17-hexaen-9-one] | 1.34 nM
7 | C[C@@H]1CCC[C@H](N2CCC(c3c(F)ccc(Cl)c3F)=CC2=O)c2cc(ccn2)-c2cc(F)ccc2NC1=O [Example 145, (10R,14S)-14-[4-(3-chloro-2,6-difluorophenyl)-6-oxo-1,2,3,6-tetrahydropyridin-1-yl]-4-fluoro-10-methyl-8,16-diazatricyclo[13.3.1.0^2,7]nonadeca-1(19),2(7),3,5,15,17-hexaen-9-one] | 18.6 nM
8 | C[C@@H]1CCC[C@H](N2CCC(c3c(F)ccc(Cl)c3F)=CC2=O)c2cc(ccn2)-c2cc(C(=O)O)ccc2NC1=O [Example 146, (10R,14S)-14-[4-(3-chloro-2,6-difluorophenyl)-6-oxo-1,2,3,6-tetrahydropyridin-1-yl]-10-methyl-9-oxo-8,16-diazatricyclo[13.3.1.0^2,7]nonadeca-1(19),2(7),3,5,15,17-hexaene-4-carboxylic acid] | 2.45 nM
9 | COC(=O)Nc1ccc2c(c1)NC(=O)[C@H](C)CCC[C@H](N1CCC(c3ccnc(Cl)c3)=CC1=O)c1cc-2ccn1 [Example 156, Methyl N-[(10R,14S)-14-[4-(2-chloropyridin-4-yl)-6-oxo-1,2,3,6-tetrahydropyridin-1-yl]-10-methyl-9-oxo-8,16-diazatricyclo[13.3.1.0^2,7]nonadeca-1(19),2,4,6,15,17-hexaen-5-yl]carbamate, 2 TFA salt] | > 446 nM
10 | COC(=O)c1ccc2c(c1)-c1cccc(c1)[C@@H](N1CCC(c3c(C(C)=O)ccc(Cl)c3F)=CC1=O)CCC[C@@H](C)C(=O)N2 [Example 172, Methyl (10R,14S)-14-[4-(6-acetyl-3-chloro-2-fluorophenyl)-6-oxo-1,2,3,6-tetrahydropyridin-1-yl]-10-methyl-9-oxo-8-azatricyclo[13.3.1.0^2,7]nonadeca-1(18),2,4,6,15(19),16-hexaene-4-carboxylate] | 140 nM
11 | COC(=O)Nc1ccc2c(c1)NC(=O)[C@H](C)CCC[C@H](N1CCC(c3c(C#N)ccc(Cl)c3F)=CC1=O)c1cccc-2c1 [Example 173, Methyl N-[(10R,14S)-14-[4-(3-chloro-6-cyano-2-fluorophenyl)-6-oxo-1,2,3,6-tetrahydropyridin-1-yl]-10-methyl-9-oxo-8-azatricyclo[13.3.1.0^2,7]nonadeca-1(18),2,4,6,15(19),16-hexaen-5-yl]carbamate] | 0.42 nM
12 | C#Cc1ccc(Cl)c(F)c1C1=CC(=O)N([C@H]2CCC[C@@H](C)C(=O)Nc3cc(NC(=O)OC)ccc3-c3ccnc2c3)CC1 [Example 181, Methyl N-[(10R,14S)-14-[4-(3-chloro-6-ethynyl-2-fluorophenyl)-6-oxo-1,2,3,6-tetrahydropyridin-1-yl]-10-methyl-9-oxo-8,16-diazatricyclo[13.3.1.0^2,7]nonadeca-1(19),2(7),3,5,15,17-hexaen-5-yl]carbamate] | 0.1 nM
13 | C[C@@H]1CCC[C@H](N2CCC(c3cc(Cl)ccc3-n3ccnn3)=CC2=O)c2cc(ccn2)-c2ccccc2NC1=O [Example 189, (10R,14S)-14-{4-[5-chloro-2-(1H-1,2,3-triazol-1-yl)phenyl]-6-oxo-1,2,3,6-tetrahydropyridin-1-yl}-10-methyl-8,16-diazatricyclo[13.3.1.0^2,7]nonadeca-1(19),2(7),3,5,15,17-hexaen-9-one] | 2.28 nM
14 | C[C@@H]1CCC[C@H](N2CCC(c3c(F)ccc(Cl)c3F)=CC2=O)c2cc(ccn2)-c2ccc(NC(=N)N)cc2NC1=O [Example 192, 1-[(10R,14S)-14-[4-(3-chloro-2,6-difluorophenyl)-6-oxo-1,2,3,6-tetrahydropyridin-1-yl]-10-methyl-9-oxo-8,16-diazatricyclo[13.3.1.0^2,7]nonadeca-1(19),2,4,6,15,17-hexaen-5-yl]guanidine, 2 TFA salt] | 91 nM
15 | COC(=O)c1cc2c(cc1N)NC(=O)[C@H](C)CCC[C@H](N1CCC(c3c(F)ccc(Cl)c3F)=CC1=O)c1cc-2ccn1 [Example 197, Methyl (10R,14S)-5-amino-14-[4-(3-chloro-2,6-difluorophenyl)-6-oxo-1,2,3,6-tetrahydropyridin-1-yl]-10-methyl-9-oxo-8,16-diazatricyclo[13.3.1.0^2,7]nonadeca-1(19),2,4,6,15,17-hexaene-4-carboxylate, 2 TFA salt] | 4.54 nM
16 | C[C@@H]1CCC[C@H](N2CCC(c3c(F)ccc(Cl)c3F)=CC2=O)c2cc(ccn2)-n2nc(C(=O)O)cc2NC1=O [Example 222, (9R,13S)-13-[4-(3-chloro-2,6-difluorophenyl)-6-oxo-1,2,3,6-tetrahydropyridin-1-yl]-9-methyl-8-oxo-2,3,7,15-tetraazatricyclo[12.3.1.0^2,6]octadeca-1(18),3,5,14,16-pentaene-4-carboxylic acid] | 88.4 nM
17 | C[C@@H]1CCC[C@H](N2CCC(c3c(F)ccc(Cl)c3F)=CC2=O)c2cc(ccn2)-n2nc(C3CC3)cc2NC1=O [Example 223, (9R,13S)-13-[4-(3-chloro-2,6-difluorophenyl)-6-oxo-1,2,3,6-tetrahydropyridin-1-yl]-4-cyclopropyl-9-methyl-2,3,7,15-tetraazatricyclo[12.3.1.0^2,6]octadeca-1(18),3,5,14,16-pentaen-8-one] | 302 nM
18 | COC(=O)Nc1cc2n(n1)-c1ccnc(c1)[C@@H](N1CCC(c3c(F)ccc(Cl)c3F)=CC1=O)CCC[C@@H](C)C(=O)N2 [Example 224, Methyl N-[(9R,13S)-13-[4-(3-chloro-2,6-difluorophenyl)-6-oxo-1,2,3,6-tetrahydropyridin-1-yl]-9-methyl-8-oxo-2,3,7,15-tetraazatricyclo[12.3.1.0^2,6]octadeca-1(18),3,5,14,16-pentaen-4-yl]carbamate] | 298 nM

The compounds below were run against purified human plasma kallikrein (Homo sapiens (Human), UniProt P03952) (assay: biochemical). Details: Plasma Kallikrein Ki.
Format: biochemical

Chain of purified human plasma kallikrein (P03952 whole entry, looked up): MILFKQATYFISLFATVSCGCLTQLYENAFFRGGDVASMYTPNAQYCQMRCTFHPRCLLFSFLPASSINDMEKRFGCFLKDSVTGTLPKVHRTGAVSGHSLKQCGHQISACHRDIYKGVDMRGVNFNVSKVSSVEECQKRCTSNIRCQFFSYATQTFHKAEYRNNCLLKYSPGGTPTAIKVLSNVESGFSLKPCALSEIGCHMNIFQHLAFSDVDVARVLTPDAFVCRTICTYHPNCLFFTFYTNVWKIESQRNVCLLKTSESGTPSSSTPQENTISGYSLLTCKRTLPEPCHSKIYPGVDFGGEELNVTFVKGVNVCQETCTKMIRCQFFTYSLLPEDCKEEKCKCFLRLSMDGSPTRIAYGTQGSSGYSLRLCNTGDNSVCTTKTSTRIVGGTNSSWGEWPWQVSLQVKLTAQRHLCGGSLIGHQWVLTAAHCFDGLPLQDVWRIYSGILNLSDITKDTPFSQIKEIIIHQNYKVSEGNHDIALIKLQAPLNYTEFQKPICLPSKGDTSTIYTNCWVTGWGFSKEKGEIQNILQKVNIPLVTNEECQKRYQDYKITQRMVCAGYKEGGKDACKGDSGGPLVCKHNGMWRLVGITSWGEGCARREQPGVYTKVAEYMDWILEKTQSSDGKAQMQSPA
Chain of purified human plasma kallikrein (P03952 whole entry partner, looked up): as the sequence (P03952 whole entry, looked up) above

Row | Structure (SMILES) | Ki
19 | COC(=O)Nc1ccc2c(c1)NC(=O)C(C)(O)CCC[C@H](N1CCC(c3c(F)ccc(Cl)c3F)=CC1=O)c1cc-2ccn1 (single isomer, unassigned) [Example 124, TFA salt] | 483 nM
20 | COC(=O)Nc1ccc2c(c1)NC(=O)[C@H](C)CCC[C@H](N1CC(C)C(c3c(F)ccc(Cl)c3F)=CC1=O)c1cc-2ccn1 (single isomer, unassigned; isomer 2) [Example 178] | 5.68 nM

Same assay, conditions: TFA salt; read-out: Plasma Kallikrein Ki

Row | Structure (SMILES) | Ki
21 | COC(=O)Nc1ccc2c(c1)NC(=O)[C@H](C)CCC[C@H](N1CCC(C3CCCC(C)C3)=CC1=O)c1cc-2ccn1 (single isomer, unassigned) [Example 153, TFA salt] | 21.2 nM
22 | COC(=O)Nc1ccc2c(c1)NC(=O)[C@H](C)CCC[C@H](N1CCC(C3CCCC(C)C3)=CC1=O)c1cc-2ccn1 (single isomer, unassigned) [Example 218, TFA salt] | 378 nM

Same assay, conditions: read-out: Plasma Kallikrein Ki

Row | Structure (SMILES) | Ki
23 | C[C@@H]1CCC[C@H](N2CCC(c3c(F)ccc(Cl)c3F)=CC2=O)c2cc(ccn2)-c2cc(Cl)c(O)c(Cl)c2NC1=O [Example 20, (10R,14S)-4,6-Dichloro-14-[4-(3-chloro-2,6-difluorophenyl)-6-oxo-1,2,3,6-tetrahydropyridin-1-yl]-5-hydroxy-10-methyl-8,16-diazatricyclo[13.3.1.0^2,7]nonadeca-1(19),2,4,6,15,17-hexaen-9-one, TFA salt] | 973 nM
24 | CC1CCC[C@H](N2CCC(c3c(F)ccc(Cl)c3F)=CC2=O)c2cc(ccn2)-c2ccc(C#N)cc2NC1=O (stereo partly drawn) [Example 109, (14S)-14-[4-(3-Chloro-2,6-difluorophenyl)-6-oxo-1,2,3,6-tetrahydropyridin-1-yl]-10-methyl-9-oxo-8,16-diazatricyclo[13.3.1.0^2,7]nonadeca-1(18),2,4,6,15(19),16-hexaene-5-carbonitrile, TFA salt] | 40 nM
25 | C[C@@H]1CCC[C@H](N2CCC(c3c(F)ccc(Cl)c3F)=CC2=O)c2cc(ccn2)-c2ccc(NC3O[C@H](CO)[C@@H](O)[C@@H](O)[C@H]3NC(=O)OC(C)(C)C)cc2NC1=O (stereo partly drawn) [Example 132, tert-butyl N-[(3R,4S,5S,6R)-2-{[(10R,14S)-14-[4-(3-chloro-2,6-difluorophenyl)-6-oxo-1,2,3,6-tetrahydropyridin-1-yl]-10-methyl-9-oxo-8,16-diazatricyclo[13.3.1.0^2,7]nonadeca-1(19),2,4,6,15,17-hexaen-5-yl]amino}-4,5-dihydroxy-6-(hydroxymethyl)oxan-3-yl]carbamate] | 17.3 nM
26 | COC(=O)Nc1ccc2c(c1)NC(=O)[C@H](C)CCC[C@H](N1CCC(c3cccc(Cl)c3F)=CC1=O)c1nc-2c(C)[nH]1 [Example 151, Methyl N-[(10R,14S)-14-[4-(3-chloro-2-fluorophenyl)-6-oxo-1,2,3,6-tetrahydropyridin-1-yl]-10,17-dimethyl-9-oxo-8,16,18-triazatricyclo[13.2.1.0^2,7]octadeca-1(17),2,4,6,15(18)-pentaen-5-yl]carbamate] | 23.8 nM
